What follows are molecules tested against human recombinant H-PGDS (Homo sapiens, UniProt O60760) (assay: Fluorescence intensity h-PGDS TBA enzyme assay). Conditions: Examples up to 622 (and 3a, 3b).
Format: biochemical

human recombinant H-PGDS, sequence (O60760 whole entry): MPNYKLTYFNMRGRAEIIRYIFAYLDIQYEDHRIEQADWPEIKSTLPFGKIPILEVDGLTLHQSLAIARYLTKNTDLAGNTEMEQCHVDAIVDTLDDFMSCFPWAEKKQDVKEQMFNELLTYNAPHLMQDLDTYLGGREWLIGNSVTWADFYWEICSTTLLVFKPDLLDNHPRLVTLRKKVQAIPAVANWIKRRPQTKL

Structure (SMILES)	IC50 [pM]
CC(C)Cc1cc(CN2CCC(NC(=O)c3ccc(-c4cccc(F)c4)nc3)CC2)n[nH]1 [Example 429, 6-(3-Fluorophenyl)-N-{1-[(5-isobutyl-1H-pyrazol-3-yl)methyl]piperidin-4-yl}nicotinamide]	1120
O=C(NC1CCN(Cc2ccc3cccc(F)c3n2)CC1)c1ccc(-c2cccc(F)c2)nc1 [Example 430, 6-(3-Fluorophenyl)-N-{1-[(8-fluoroquinolin-2-yl)methyl]piperidin-4-yl}nicotinamide]	1200
CCn1ccnc1CN1CCC(NC(=O)c2ccc(-c3cccc(F)c3)nc2)CC1 [Example 431, N-{1-[(1-Ethyl-1H-imidazol-2-yl)methyl]piperidin-4-yl}-6-(3-fluorophenyl)nicotinamide]	822
Cc1c(CN2CCC(NC(=O)c3ccc(-c4cccc(F)c4)nc3)CC2)nc2ccccn12 [Example 432, 6-(3-Fluorophenyl)-N-{1-[(3-methylimidazo[1,2-a]pyridin-2-yl)methyl]piperidin-4-yl}nicotinamide]	962
Cc1ccccc1-c1ncc(CN2CCC(NC(=O)c3ccc(-c4cccc(F)c4)nc3)CC2)cn1 [Example 434, 6-(3-Fluorophenyl)-N-(1-{[2-(2-methylphenyl)pyrimidin-5-yl]methyl}piperidin-4-yl)nicotinamide]	1510
Cc1cccc(-n2ccnc2CN2CCC(NC(=O)c3ccc(-c4cccc(F)c4)nc3)CC2)c1 [Example 435, 6-(3-Fluorophenyl)-N-(1-{[1-(3-methylphenyl)-1H-imidazol-2-yl]methyl}piperidin-4-yl)nicotinamide]	908
COc1ccccc1-c1ncc(CN2CCC(NC(=O)c3ccc(-c4cccc(F)c4)nc3)CC2)cn1 [Example 437, 6-(3-Fluorophenyl)-N-(1-{[2-(2-methoxyphenyl)pyrimidin-5-yl]methyl}piperidin-4-yl)nicotinamide]	3520
COCCc1ncc(CN2CCC(NC(=O)c3ccc(-c4cccc(F)c4)nc3)CC2)cn1 [Example 440, 6-(3-Fluorophenyl)-N-(1-{[2-(2-methoxyethyl)pyrimidin-5-yl]methyl}piperidin-4-yl)nicotinamide]	1960
CCCc1ncc(CN2CCC(NC(=O)c3ccc(-c4cccc(F)c4)nc3)CC2)cn1 [Example 441, 6-(3-Fluorophenyl)-N-{1-[(2-propylpyrimidin-5-yl)methyl]piperidin-4-yl}nicotinamide]	2580

Further molecules by falling IC50, results first:

IC50 [pM]	Structure (SMILES)
2780	CCc1ncc(CN2CCC(NC(=O)c3ccc(-c4cccc(F)c4)nc3)CC2)cn1 [Example 442, N-{1-[(2-Ethylpyrimidin-5-yl)methyl]piperidin-4-yl}-6-(3-fluorophenyl)nicotinamide]
926	CC(C)Oc1ccc(CN2CCC(NC(=O)c3ccc(-c4cccc(F)c4)nc3)CC2)cc1CO [Example 428, 6-(3-Fluorophenyl)-N-{1-[3-(hydroxymethyl)-4-isopropoxybenzyl]piperidin-4-yl}nicotinamide]
885	O=C(NC1CCN(Cc2ccccc2Cn2cccn2)CC1)c1ccc(-c2cccc(F)c2)nc1 [Example 436, 6-(3-Fluorophenyl)-N-{1-[2-(1H-pyrazol-1-ylmethyl)benzyl]piperidin-4-yl}nicotinamide]
762	O=C(NC1CCN(Cc2c[nH]nc2-c2cccc(F)c2)CC1)c1ccc(-c2cccc(F)c2)nc1 [Example 439, 6-(3-Fluorophenyl)-N-(1-{[3-(3-fluorophenyl)-1H-pyrazol-4-yl]methyl}piperidin-4-yl)nicotinamide]
417	Cc1ccc(-n2cccn2)c(CN2CCC(NC(=O)c3ccc(-c4cccc(F)c4)nc3)CC2)c1 [Example 438, 6-(3-Fluorophenyl)-N-{1-[5-methyl-2-(1H-pyrazol-1-yl)benzyl]piperidin-4-yl}nicotinamide]
401	CC(C)c1csc(CN2CCC(NC(=O)c3ccc(-c4cccc(F)c4)nc3)CC2)n1 [Example 433, 6-(3-Fluorophenyl)-N-{1-[(4-isopropyl-1,3-thiazol-2-yl)methyl]piperidin-4-yl}nicotinamide]
